pIC50: −log10 of the molar value. Where a name gives a salt, the structure may show the parent alone.
Experiments:
[1] = molecular target: PI3Kδ (p110δ/p85α) Recombinant Human Protein (Homo sapiens (Human), UniProt O00329); assay: PI3Kδ Scintillation Proximity Assay; format: biochemical; details: 20 μM PIP2, 2 μM ATP, 3.4 nM PI3Kδ, 120 min; read-out: PI3K-delta SPA IC50
Text: [γ-^33P]ATP (10 mCi/mL) and Wheat Germ Agglutinin (WGA) YSi SPA Scintillation Beads was purchased from Perkin-Elmer (Waltham, Mass.). Lipid kinase substrate, D-myo-Phosphatidylinositol 4,5-bisphosphate (PtdIns(4,5)P2)D (+)-sn-1,2-di-O-octanoylglyceryl, 3-O-phospho linked (PIP2), CAS 204858-53-7, was purchased from Echelon Biosciences (Salt Lake City, Utah). PI3Kδ (p110δ/p85α) Recombinant Human Protein was purchased from Eurofins (St Charles, Mo.). ATP, MgCl2, DTT, EDTA, MOPS and CHAPS were purchased from Sigma-Aldrich (St. Louis, Mo.).
(§1) The kinase reaction was conducted in polystyrene 384-well Greiner Bio-one white plate from Thermo Fisher Scientific in a final volume of 25 μL. Inhibitors were first diluted serially in DMSO and added to the plate wells before the addition of other reaction components. The final concentration of DMSO in the assay was 2%. The PI3Kδ assay was carried out at room temperature in 20 mM MOPS, pH 6.7, 10 mM MgCl2, 5 mM DTT and CHAPS 0.03%. Reactions were initiated by the addition of ATP, the final reaction mixture consisted of 20 μM PIP2, 2 μM ATP, 0.5 μCi [γ-^33P] ATP, 3.4 nM PI3Kδ. Reactions were incubated for 120 min and terminated by the addition of 40 μL SPA beads suspended in quench buffer: 163 mM potassium phosphate pH 7.8, 20% glycerol, 25 mM EDTA. The final concentration of SPA beads is 1.0 mg/mL. After the plate sealing, plates were shaken overnight at room temperature and centrifuged at 1500 rpm for 10 min, the radioactivity of the product was determined by scintillation counting on Topcount (Perkin-Elmer). IC50 determination was performed by fitting the curve of percent of the solvent control activity versus the log of the inhibitor concentration using the GraphPad Prism 6.0 software.

[2] = molecular target: PI3Kγ (p110γ) Recombinant Human Protein (Homo sapiens (Human), UniProt P48736); assay: PI3K-γ Scintillation Proximity Assay; format: biochemical; details: 20 μM PIP2, 2 μM ATP, 13 nM PI3Kγ, 120 min; read-out: PI3K-gamma SPA IC50
Sequence of PI3Kγ (p110γ) Recombinant Human Protein (P48736 whole entry): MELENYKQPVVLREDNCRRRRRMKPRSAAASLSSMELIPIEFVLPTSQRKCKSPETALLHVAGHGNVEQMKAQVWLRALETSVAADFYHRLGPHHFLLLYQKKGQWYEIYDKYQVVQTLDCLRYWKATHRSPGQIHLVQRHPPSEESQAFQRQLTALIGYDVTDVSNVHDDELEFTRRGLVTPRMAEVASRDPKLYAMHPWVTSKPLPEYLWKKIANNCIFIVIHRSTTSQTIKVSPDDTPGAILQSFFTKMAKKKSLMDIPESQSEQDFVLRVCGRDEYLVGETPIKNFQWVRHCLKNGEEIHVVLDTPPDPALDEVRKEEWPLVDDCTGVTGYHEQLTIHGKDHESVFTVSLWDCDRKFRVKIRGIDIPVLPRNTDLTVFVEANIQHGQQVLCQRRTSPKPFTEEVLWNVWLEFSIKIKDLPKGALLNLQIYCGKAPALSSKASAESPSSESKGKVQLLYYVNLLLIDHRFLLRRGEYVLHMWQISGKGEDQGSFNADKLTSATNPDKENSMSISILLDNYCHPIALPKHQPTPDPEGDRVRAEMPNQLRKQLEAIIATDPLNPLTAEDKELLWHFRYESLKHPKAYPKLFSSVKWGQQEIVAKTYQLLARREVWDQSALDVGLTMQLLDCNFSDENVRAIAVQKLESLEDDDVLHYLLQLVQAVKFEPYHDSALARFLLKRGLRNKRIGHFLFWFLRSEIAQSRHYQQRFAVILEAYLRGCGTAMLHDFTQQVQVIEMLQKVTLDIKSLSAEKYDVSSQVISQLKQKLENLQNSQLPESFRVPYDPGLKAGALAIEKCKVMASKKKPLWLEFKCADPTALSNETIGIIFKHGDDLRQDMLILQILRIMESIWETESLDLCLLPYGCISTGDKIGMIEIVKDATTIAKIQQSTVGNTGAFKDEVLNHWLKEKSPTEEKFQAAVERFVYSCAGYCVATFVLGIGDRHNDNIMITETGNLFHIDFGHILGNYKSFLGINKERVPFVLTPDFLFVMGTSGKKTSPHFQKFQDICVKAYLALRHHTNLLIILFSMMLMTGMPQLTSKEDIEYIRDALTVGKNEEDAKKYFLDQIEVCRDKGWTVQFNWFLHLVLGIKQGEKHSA
Description: [γ-^33P]ATP (10 mCi/mL) and Wheat Germ Agglutinin (WGA) YSi SPA Scintillation Beads was purchased from Perkin-Elmer (Waltham, Mass.). […] PI3Kγ (p110γ) Recombinant Human Protein was purchased from Life technology (Grand Island, N.Y.). ATP, MgCl2, DTT, EDTA, MOPS and CHAPS were purchased from Sigma-Aldrich (St. Louis, Mo.).
as §1, with “PI3Kγ” for “PI3Kδ”, “ATP, 3.4 nM PI3Kδ. Reactions were incubated for 120 min and terminated by the addition of 40 μL SPA beads suspended in quench buffer: 163 mM potassium phosphate pH 7.8, 20% glycerol, 25 mM EDTA.” left out

Sequence of PI3Kδ (p110δ/p85α) Recombinant Human Protein (O00329 whole entry): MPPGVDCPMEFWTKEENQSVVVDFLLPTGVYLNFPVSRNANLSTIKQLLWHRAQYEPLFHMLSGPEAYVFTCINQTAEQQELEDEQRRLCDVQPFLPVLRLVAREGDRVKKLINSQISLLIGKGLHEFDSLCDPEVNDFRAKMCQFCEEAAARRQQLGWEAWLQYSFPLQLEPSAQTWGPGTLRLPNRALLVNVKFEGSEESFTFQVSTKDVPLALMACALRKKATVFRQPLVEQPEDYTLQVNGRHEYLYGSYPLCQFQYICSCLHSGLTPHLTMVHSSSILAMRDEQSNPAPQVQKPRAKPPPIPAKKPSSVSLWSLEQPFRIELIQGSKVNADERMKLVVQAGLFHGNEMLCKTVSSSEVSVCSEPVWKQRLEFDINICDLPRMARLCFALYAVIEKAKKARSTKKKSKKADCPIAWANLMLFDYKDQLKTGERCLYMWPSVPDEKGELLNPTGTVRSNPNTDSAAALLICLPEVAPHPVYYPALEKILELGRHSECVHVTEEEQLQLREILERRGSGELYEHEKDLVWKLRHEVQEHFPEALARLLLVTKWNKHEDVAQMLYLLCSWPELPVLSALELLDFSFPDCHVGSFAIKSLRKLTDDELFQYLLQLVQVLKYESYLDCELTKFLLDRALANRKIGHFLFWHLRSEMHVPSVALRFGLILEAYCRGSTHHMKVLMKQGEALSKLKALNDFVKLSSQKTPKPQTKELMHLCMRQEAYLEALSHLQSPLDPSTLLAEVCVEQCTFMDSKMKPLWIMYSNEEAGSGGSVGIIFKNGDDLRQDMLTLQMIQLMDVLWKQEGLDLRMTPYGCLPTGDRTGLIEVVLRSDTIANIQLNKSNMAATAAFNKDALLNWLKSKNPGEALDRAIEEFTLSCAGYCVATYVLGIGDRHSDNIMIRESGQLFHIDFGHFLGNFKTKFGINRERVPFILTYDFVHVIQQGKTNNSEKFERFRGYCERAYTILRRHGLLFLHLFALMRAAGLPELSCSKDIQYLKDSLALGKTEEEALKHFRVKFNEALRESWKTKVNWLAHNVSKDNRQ
Sequence of PI3Kδ (p110δ/p85α) Recombinant Human Protein (P27986 whole entry partner): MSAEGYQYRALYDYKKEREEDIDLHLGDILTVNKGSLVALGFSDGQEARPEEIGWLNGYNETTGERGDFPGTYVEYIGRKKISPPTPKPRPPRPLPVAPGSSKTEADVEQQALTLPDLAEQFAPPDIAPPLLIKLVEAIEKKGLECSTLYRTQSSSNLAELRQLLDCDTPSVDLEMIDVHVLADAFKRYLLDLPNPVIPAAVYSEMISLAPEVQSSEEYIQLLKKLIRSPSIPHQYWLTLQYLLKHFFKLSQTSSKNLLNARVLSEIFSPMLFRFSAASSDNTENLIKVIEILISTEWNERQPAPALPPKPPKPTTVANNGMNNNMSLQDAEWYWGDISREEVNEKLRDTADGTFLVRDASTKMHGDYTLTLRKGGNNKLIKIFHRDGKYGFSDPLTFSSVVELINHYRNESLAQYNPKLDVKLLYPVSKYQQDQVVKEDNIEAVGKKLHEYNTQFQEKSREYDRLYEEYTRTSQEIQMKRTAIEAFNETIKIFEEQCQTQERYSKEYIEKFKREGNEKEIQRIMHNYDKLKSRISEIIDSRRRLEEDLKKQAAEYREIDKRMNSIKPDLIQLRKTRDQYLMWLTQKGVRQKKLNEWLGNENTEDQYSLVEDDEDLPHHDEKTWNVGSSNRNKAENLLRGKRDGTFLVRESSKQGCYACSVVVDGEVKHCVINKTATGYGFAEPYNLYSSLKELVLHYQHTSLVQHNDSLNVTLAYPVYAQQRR

| SMILES | pIC50 [1] | pIC50 [2] |
| --- | --- | --- |
| c1ccc2[nH]c(-c3nc4ccc(-c5ccc6[nH]ncc6c5)cc4o3)nc2c1 [Example 49, 2-(1H-Benzimidazol-2-yl)-6-(1H-indazol-5-yl)-1,3-benzoxazole] | > 5.30 | > 6.60 |
| COc1cncc(-c2ccc3nc(-c4nc5cc(C)ccc5[nH]4)oc3c2)c1 [Example 11, 6-(5-Methoxypyridin-3-yl)-2-(5-methyl-1H-benzo[d]imidazol-2-yl)benzo[d]oxazole] | > 5.30 | > 6.60 |
| CCc1ncc(-c2nc3ccc(-c4cncc(OC)c4)cc3o2)[nH]1 [Example 45, 2-(2-Ethyl-1H-imidazol-5-yl)-6-(5-methoxy-pyridin-3-yl)benzo[d] oxazole] | ≤ 5.30 | < 5.30 |
| CCS(=O)(=O)Nc1cc(-c2ccc3nc(-c4nc5c([nH]4)CCCC5)oc3c2)cnc1OC [Example 66, N-(2-Methoxy-5-(2-(4,5,6,7-tetrahydro-1H-benzo[d]imidazol-2-yl)benzo[d]oxazol-6-yl)pyridin-3-yl)ethanesulfonamide] | > 6.60 | > 6.60 |
| N#Cc1cncc(-c2ccc3nc(-c4nc5ccccc5[nH]4)oc3c2)c1 [Example 35, 5-(2-(1H-Benzo[d]imidazol-2-yl)benzo[d]oxazol-6-yl)nicotinonitrile] | ≤ 5.30 | > 6.60 |
| O=S(=O)(c1cncc(-c2ccc3nc(-c4nc5ccccc5[nH]4)oc3c2)c1)N1CCOCC1 [Example 38, 2-(1H-Benzo[d]imidazol-2-yl)-6-(5-(morpholinosulfonyl)pyridin-3-yl)benzo[d]oxazole] | ≤ 5.30 | > 6.60 |
| CCS(=O)(=O)Nc1cc(-c2ccc3nc(-c4nc5ccccc5[nH]4)oc3c2)cnc1OC [Example 79, N-(5-(2-(1H-Benzo [d]imidazol-2-yl)benzo[d]oxazol-6-yl)-2-methoxypyridin-3-yl)ethanesulfonamide bis(trifluoroacetate)] | > 6.60 | > 6.60 |
| c1ccc(Cn2cc(-c3ccc4nc(-c5nc6ccccc6[nH]5)oc4c3)cn2)cc1 [Example 48, 2-(1H-Benzimidazol-2-yl)-6-(1-benzyl-1H-pyrazol-4-yl)-1,3-benzoxazole] | > 5.30 | > 6.60 |
| O=S(=O)(CC(F)(F)F)Nc1cncc(-c2ccc3nc(-c4nc5ccccc5[nH]4)oc3c2)c1 [Example 77, N-(5-(2-(1H-Benzo [d]imidazol-2-yl)benzo[d]oxazol-6-yl)pyridin-3-yl)-2,2,2-trifluoro-ethanesulfonamide bis(trifluoroacetate)] | > 6.00 | > 6.60 |
| OC(c1cncc(-c2ccc3nc(-c4ncc[nH]4)oc3c2)c1)C(F)(F)F (stereo not shown) [Example 61, 1-(5-(2-(1H-Imidazol-2-yl)benzo[d]oxazol-6-yl)pyridin-3-yl)-2,2,2-trifluoroethanol bis(trifluoroacetate)] | > 6.60 | > 6.60 |
| CCS(=O)(=O)n1ncc2ccc(-c3ccc4nc(-c5nc6ccccc6[nH]5)oc4c3)cc21 [Example 52, 6-[1-(Ethylsulfonyl)-1H-indazol-6-yl]-2-(1H-benzimidazol-2-yl)-1,3-benzoxazole] | > 6.60 | > 6.60 |
| Cc1ncc(-c2ccc3nc(-c4nc5ccccc5[nH]4)oc3c2)cc1NS(=O)(=O)N(C)C [Example 22, N′-{5-[2-(1H-Benzimidazol-2-yl)-1,3-benzoxazol-6-yl]-2-methylpyridin-3-yl}-N,N-dimethylsulfamide] | > 6.60 | > 6.60 |
| O=S(=O)(Nc1cncc(-c2ccc3nc(-c4nc5ccccc5[nH]4)oc3c2)c1)c1ccc(F)cc1 [Example 17, N-(5-(2-(1H-Benzo[d]imidazol-2-yl)benzo[d]oxazol-6-yl)pyridin-3-yl)-4-fluorobenzenesulfonamide] | > 6.60 | > 6.60 |
| COc1cc(-c2ccc3nc(-c4nc5ccccc5[nH]4)oc3c2)cnc1F [Example 69, 2-(1H-Benzo[d]imidazol-2-yl)-6-(6-fluoro-5-methoxypyridin-3-yl)benzo[d]oxazole bis(trifluoroacetate)] | ≤ 5.30 | > 6.60 |
| CCS(=O)(=O)Nc1cc(-c2ccc3nc(-c4nc5ccccc5[nH]4)oc3c2)ccc1F [Example 60, N-{5-[2-(1H-Benzimidazol-2-yl)-1,3-benzoxazol-6-yl]-2-fluorophenyl}ethanesulfonamide] | ≤ 5.30 | > 6.60 |
| CCS(=O)(=O)Nc1cc(-c2ccc3nc(-c4nc5ccccc5[nH]4)oc3c2)cnc1Cl [Example 26, N-(5-(2-(1H-Benzo[d]imidazol-2-yl)benzo[d]oxazol-6-yl)-2-chloropyridin-3-yl)ethanesulfonamide] | ≤ 5.30 | > 6.60 |
| O=S(=O)(Nc1cc(-c2ccc3nc(-c4nc5ccccc5[nH]4)oc3c2)cnc1Cl)c1ccc(F)cc1 [Example 29, N-(5-(2-(1H-Benzo[d]imidazol-2-yl)benzo[d]oxazol-6-yl)-2-chloropyridin-3-yl)-4-fluorobenzenesulfonamide] | > 6.60 | > 6.60 |
| COc1cncc(-c2ccc3nc(-c4nc5cc(F)ccc5[nH]4)oc3c2)c1 [Example 10, 2-(5-Fluoro-1H-benzo[d]imidazol-2-yl)-6-(5-methoxypyridin-3-yl)benzo[d]oxazole] | ≤ 5.30 | > 6.00 |
| COc1cncc(-c2ccc3nc(-c4cc(-c5ccccc5)n[nH]4)oc3c2)c1 [Example 47, 6-(5-Methoxypyridin-3-yl)-2-(3-phenyl-1H-pyrazol-5-yl)benzo[d]oxazole] | ≤ 5.30 | > 5.30 |
| COc1cncc(-c2ccc3nc(-c4ncc[nH]4)oc3c2)c1 [Example 1, 2-(1H-Imidazol-2-yl)-6-(5-methoxypyridin-3-yl)benzo[d]oxazole trifluoroacetate] | > 5.30 | > 6.00 |
| Nc1ncc(-c2ccc3nc(-c4nc5ccccc5[nH]4)oc3c2)cc1C(F)(F)F [Example 56, 5-[2-(1H-Benzimidazol-2-yl)-1,3-benzoxazol-6-yl]-3-(trifluoromethyl)pyridin-2-amine bis(trifluoroacetate)] | ≤ 5.30 | > 6.60 |
| CCn1ncc2ncc(-c3ccc4nc(-c5nc6ccccc6[nH]5)oc4c3)cc21 [Example 57, 6-[2-(1H-Benzimidazol-2-yl)-1,3-benzoxazol-6-yl]-1-ethyl-1H-pyrazolo[4,3-b]pyridine tris(trifluoroacetate)] | > 6.00 | > 6.60 |
| Cc1ncc(-c2ccc3nc(-c4nc5ccccc5[nH]4)oc3c2)cc1NS(=O)(=O)CC(F)(F)F [Example 76, N-(5-(2-(1H-Benzo [d]imidazol-2-yl)benzo[d]oxazol-6-yl)-2-methylpyridin-3-yl)-2,2,2-trifluoro-ethanesulfonamide bis(trifluoroacetate)] | > 6.60 | > 6.60 |
| CCS(=O)(=O)Nc1cc(-c2ccc3nc(-c4nc5ccccc5[nH]4)oc3c2)cnc1F [Example 27, N-(5-(2-(1H-Benzo[d]imidazol-2-yl)benzo[d]oxazol-6-yl)-2-fluoropyridin-3-yl)ethanesulfonamide] | > 6.00 | > 6.60 |
| O=C(O)Cc1cncc(-c2ccc3nc(-c4nc5ccccc5[nH]4)oc3c2)c1 [Example 71, 2-(5-(2-(1H-Benzo [d]imidazol-2-yl)benzo[d]oxazol-6-yl)pyridin-3-yl)acetic acid] | > 5.30 | > 6.00 |
| Cc1n[nH]c2ccc(-c3ccc4nc(-c5nc6ccccc6[nH]5)oc4c3)cc12 [Example 50, 2-(1H-Benzimidazol-2-yl)-6-(3-methyl-1H-indazol-5-yl)-1,3-benzoxazole] | > 6.60 | > 6.60 |

From patent US9586949B2, “Aza-heteroaryl compounds as PI3K-gamma inhibitors” (Incyte Corporation, priority 2015, dated 2017)
